Assay results published in PMC12420824, “Discovery of a selective alpha-kinase 1 inhibitor for the rare genetic disease ROSAH syndrome” (Nature Communications, 2025).
Several values for one entry are separate records, joined by “and”; a condition that tells them apart may be missing. Identical values can stand only once.

How the values were obtained:
[1] = molecular target: MEK3 (Homo sapiens, UniProt P46734); assay: HotSpot kinase assay; settings: read-out: % Enzyme Activity (relative to DMSO control), 10 uM
[2] = molecular target: LOK/STK10 (Homo sapiens, UniProt O94804); assay: HotSpot kinase assay; settings: read-out: % Enzyme Activity (relative to DMSO control), 10 uM
Source text: (§1) Additionally, a 10-dose dilution series of staurosporine and other enzyme-appropriate compounds were included as positive control inhibitors.

[3] = molecular target: HIPK3 (Homo sapiens, UniProt Q9H422); assay: HotSpot kinase assay; settings: read-out: % Enzyme Activity (relative to DMSO control), 10 uM
[4] = molecular target: PRKX (Homo sapiens, UniProt P51817); assay: HotSpot kinase assay; settings: read-out: % Enzyme Activity (relative to DMSO control), 10 uM
Source text: as §1

[5] = molecular target: NEK6 (Homo sapiens, UniProt Q9HC98); assay: HotSpot kinase assay; settings: read-out: % Enzyme Activity (relative to DMSO control), 10 uM
Source text: as §1

[6] = molecular target: PKN2/PRK2 (Homo sapiens, UniProt Q16513); assay: HotSpot kinase assay; settings: read-out: % Enzyme Activity (relative to DMSO control), 10 uM
Source text: as §1

[7] = molecular target: SRMS (Homo sapiens, UniProt Q9H3Y6); assay: HotSpot kinase assay; settings: read-out: % Enzyme Activity (relative to DMSO control), 10 uM
[8] = molecular target: GRK5 (Homo sapiens, UniProt P34947); assay: HotSpot kinase assay; settings: read-out: % Enzyme Activity (relative to DMSO control), 10 uM
[9] = molecular target: ULK2 (Homo sapiens, UniProt Q8IYT8); assay: HotSpot kinase assay; settings: read-out: % Enzyme Activity (relative to DMSO control), 10 uM
Source text: as §1

[10] = molecular target: MYO3b (Homo sapiens, UniProt Q8WXR4); assay: HotSpot kinase assay; settings: read-out: % Enzyme Activity (relative to DMSO control), 10 uM
[11] = molecular target: PKCepsilon (Homo sapiens, UniProt Q02156); assay: HotSpot kinase assay; settings: read-out: % Enzyme Activity (relative to DMSO control), 10 uM
Source text: as §1

[12] = test system: hALPK1-KI mice; assay: Retinal microglia (IBA1-positive cells); settings: individual animals
[13] = molecular target: DYRK2 (Homo sapiens, UniProt Q92630); assay: HotSpot kinase assay; settings: read-out: % Enzyme Activity (relative to DMSO control), 10 uM
Source text: as §1

[14] = molecular target: EIF2AK1 (Homo sapiens, UniProt Q9BQI3); assay: HotSpot kinase assay; settings: read-out: % Enzyme Activity (relative to DMSO control), 10 uM
Source text: as §1

[15] = molecular target: AMPK(A2/B1/G1) (Homo sapiens, UniProt P54646); assay: HotSpot kinase assay; settings: read-out: % Enzyme Activity (relative to DMSO control), 10 uM
Source text: as §1

[16] = molecular target: EPHA5 (Homo sapiens, UniProt P54756); assay: HotSpot kinase assay; settings: read-out: % Enzyme Activity (relative to DMSO control), 10 uM
Source text: as §1

[17] = molecular target: TNIK (Homo sapiens, UniProt Q9UKE5); assay: HotSpot kinase assay; settings: read-out: % Enzyme Activity (relative to DMSO control), 10 uM
[18] = molecular target: PKCb2 (Homo sapiens, UniProt P05771); assay: HotSpot kinase assay; settings: read-out: % Enzyme Activity (relative to DMSO control), 10 uM
Source text: as §1

[19] = molecular target: PKN3/PRK3 (Homo sapiens, UniProt Q6P5Z2); assay: HotSpot kinase assay; settings: read-out: % Enzyme Activity (relative to DMSO control), 10 uM
[20] = molecular target: VRK2 (Homo sapiens, UniProt Q86Y07); assay: HotSpot kinase assay; settings: read-out: % Enzyme Activity (relative to DMSO control), 10 uM
[21] = molecular target: CK2a2 (Homo sapiens, UniProt P19784); assay: HotSpot kinase assay; settings: read-out: % Enzyme Activity (relative to DMSO control), 10 uM
Source text: as §1

[22] = molecular target: PDGFRa (Homo sapiens, UniProt P16234); assay: HotSpot kinase assay; settings: read-out: % Enzyme Activity (relative to DMSO control), 10 uM
Source text: as §1

[23] = molecular target: SIK3 (Homo sapiens, UniProt Q9Y2K2); assay: HotSpot kinase assay; settings: read-out: % Enzyme Activity (relative to DMSO control), 10 uM
Source text: as §1

[24] = molecular target: CDK18/cyclin Y (PCTK3) (Homo sapiens, UniProt Q07002); assay: HotSpot kinase assay; settings: read-out: % Enzyme Activity (relative to DMSO control), 10 uM
Source text: as §1

[25] = molecular target: ALK1/ACVRL1 (Homo sapiens, UniProt P37023); assay: HotSpot kinase assay; settings: read-out: % Enzyme Activity (relative to DMSO control), 10 uM
Source text: as §1

[26] = molecular target: STK38L/NDR2 (Homo sapiens, UniProt Q9Y2H1); assay: HotSpot kinase assay; settings: read-out: % Enzyme Activity (relative to DMSO control), 10 uM
Source text: as §1

[27] = molecular target: TTBK2 (Homo sapiens, UniProt Q6IQ55); assay: HotSpot kinase assay; settings: read-out: % Enzyme Activity (relative to DMSO control), 10 uM
Source text: as §1

[28] = molecular target: PKD2/PRKD2 (Homo sapiens, UniProt Q9BZL6); assay: HotSpot kinase assay; settings: read-out: % Enzyme Activity (relative to DMSO control), 10 uM
Source text: as §1

[29] = molecular target: CDK3/cyclin E (Homo sapiens, UniProt Q00526); assay: HotSpot kinase assay; settings: read-out: % Enzyme Activity (relative to DMSO control), 10 uM
Source text: as §1

[30] = molecular target: SYK (Homo sapiens, UniProt P43405); assay: HotSpot kinase assay; settings: read-out: % Enzyme Activity (relative to DMSO control), 10 uM
Source text: as §1

[31] = molecular target: TLK1 (Homo sapiens, UniProt Q9UKI8); assay: HotSpot kinase assay; settings: read-out: % Enzyme Activity (relative to DMSO control), 10 uM
Source text: as §1

[32] = molecular target: GLK/MAP4K3 (Homo sapiens, UniProt Q8IVH8); assay: HotSpot kinase assay; settings: read-out: % Enzyme Activity (relative to DMSO control), 10 uM
[33] = molecular target: FGFR3 (Homo sapiens, UniProt P22607); assay: HotSpot kinase assay; settings: read-out: % Enzyme Activity (relative to DMSO control), 10 uM
Source text: as §1

[34] = molecular target: RIPK5 (Homo sapiens, UniProt Q6XUX3); assay: HotSpot kinase assay; settings: read-out: % Enzyme Activity (relative to DMSO control), 10 uM
Source text: as §1

[35] = molecular target: AMPK (A2/B1/G3) (Homo sapiens, UniProt P54646); assay: HotSpot kinase assay; settings: read-out: % Enzyme Activity (relative to DMSO control), 10 uM
Source text: as §1

[36] = molecular target: SSTK/TSSK6 (Homo sapiens, UniProt Q9BXA6); assay: HotSpot kinase assay; settings: read-out: % Enzyme Activity (relative to DMSO control), 10 uM
[37] = molecular target: MST1/STK4 (Homo sapiens, UniProt Q13043); assay: HotSpot kinase assay; settings: read-out: % Enzyme Activity (relative to DMSO control), 10 uM
[38] = molecular target: TEC (Homo sapiens, UniProt P42680); assay: HotSpot kinase assay; settings: read-out: % Enzyme Activity (relative to DMSO control), 10 uM
Source text: as §1

[39] = molecular target: STK38/NDR1 (Homo sapiens, UniProt Q15208); assay: HotSpot kinase assay; settings: read-out: % Enzyme Activity (relative to DMSO control), 10 uM
Source text: as §1

Sequence of PRKX (P51817 whole entry): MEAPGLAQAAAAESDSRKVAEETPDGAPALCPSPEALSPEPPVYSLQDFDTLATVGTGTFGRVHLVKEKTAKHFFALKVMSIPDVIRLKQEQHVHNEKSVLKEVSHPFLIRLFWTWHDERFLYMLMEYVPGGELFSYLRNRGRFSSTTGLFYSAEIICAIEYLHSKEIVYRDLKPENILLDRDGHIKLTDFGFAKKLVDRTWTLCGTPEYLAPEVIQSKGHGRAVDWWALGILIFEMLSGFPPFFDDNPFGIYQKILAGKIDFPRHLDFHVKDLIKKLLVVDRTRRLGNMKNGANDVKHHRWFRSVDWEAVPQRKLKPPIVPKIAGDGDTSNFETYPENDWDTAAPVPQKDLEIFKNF
Sequence of HIPK3 (Q9H422 whole entry): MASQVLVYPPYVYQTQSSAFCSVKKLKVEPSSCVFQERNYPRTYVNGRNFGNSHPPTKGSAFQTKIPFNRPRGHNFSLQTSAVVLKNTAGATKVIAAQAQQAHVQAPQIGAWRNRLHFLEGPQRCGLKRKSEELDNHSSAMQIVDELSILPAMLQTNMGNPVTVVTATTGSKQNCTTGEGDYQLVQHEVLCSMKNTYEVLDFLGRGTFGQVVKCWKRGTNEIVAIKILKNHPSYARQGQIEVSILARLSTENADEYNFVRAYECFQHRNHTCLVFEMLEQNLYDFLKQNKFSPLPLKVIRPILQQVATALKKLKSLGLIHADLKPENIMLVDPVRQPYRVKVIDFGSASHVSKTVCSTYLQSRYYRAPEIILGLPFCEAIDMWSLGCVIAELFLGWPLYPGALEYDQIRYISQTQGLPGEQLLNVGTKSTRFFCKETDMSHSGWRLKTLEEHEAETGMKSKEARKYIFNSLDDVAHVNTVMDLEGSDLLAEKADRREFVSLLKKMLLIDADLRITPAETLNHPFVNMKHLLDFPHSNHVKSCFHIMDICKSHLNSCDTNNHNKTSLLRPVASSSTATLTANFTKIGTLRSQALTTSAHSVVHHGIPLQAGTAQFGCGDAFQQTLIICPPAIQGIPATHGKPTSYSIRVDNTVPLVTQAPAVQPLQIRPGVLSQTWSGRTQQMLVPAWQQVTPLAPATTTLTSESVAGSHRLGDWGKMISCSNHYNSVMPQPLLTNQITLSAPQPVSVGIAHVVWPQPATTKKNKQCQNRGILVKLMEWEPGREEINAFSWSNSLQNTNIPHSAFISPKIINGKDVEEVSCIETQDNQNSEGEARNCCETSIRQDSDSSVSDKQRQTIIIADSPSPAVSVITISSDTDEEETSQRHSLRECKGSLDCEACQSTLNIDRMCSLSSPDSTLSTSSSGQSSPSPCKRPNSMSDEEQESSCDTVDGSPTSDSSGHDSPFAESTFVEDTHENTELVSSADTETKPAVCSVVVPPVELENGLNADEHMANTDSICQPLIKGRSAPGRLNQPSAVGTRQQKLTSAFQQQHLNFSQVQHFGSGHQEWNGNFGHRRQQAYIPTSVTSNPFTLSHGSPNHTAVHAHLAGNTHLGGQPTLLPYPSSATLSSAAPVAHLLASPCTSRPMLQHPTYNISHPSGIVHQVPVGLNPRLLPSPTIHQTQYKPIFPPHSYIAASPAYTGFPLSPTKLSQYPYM
Sequence of PDGFRa (P16234 24-1089): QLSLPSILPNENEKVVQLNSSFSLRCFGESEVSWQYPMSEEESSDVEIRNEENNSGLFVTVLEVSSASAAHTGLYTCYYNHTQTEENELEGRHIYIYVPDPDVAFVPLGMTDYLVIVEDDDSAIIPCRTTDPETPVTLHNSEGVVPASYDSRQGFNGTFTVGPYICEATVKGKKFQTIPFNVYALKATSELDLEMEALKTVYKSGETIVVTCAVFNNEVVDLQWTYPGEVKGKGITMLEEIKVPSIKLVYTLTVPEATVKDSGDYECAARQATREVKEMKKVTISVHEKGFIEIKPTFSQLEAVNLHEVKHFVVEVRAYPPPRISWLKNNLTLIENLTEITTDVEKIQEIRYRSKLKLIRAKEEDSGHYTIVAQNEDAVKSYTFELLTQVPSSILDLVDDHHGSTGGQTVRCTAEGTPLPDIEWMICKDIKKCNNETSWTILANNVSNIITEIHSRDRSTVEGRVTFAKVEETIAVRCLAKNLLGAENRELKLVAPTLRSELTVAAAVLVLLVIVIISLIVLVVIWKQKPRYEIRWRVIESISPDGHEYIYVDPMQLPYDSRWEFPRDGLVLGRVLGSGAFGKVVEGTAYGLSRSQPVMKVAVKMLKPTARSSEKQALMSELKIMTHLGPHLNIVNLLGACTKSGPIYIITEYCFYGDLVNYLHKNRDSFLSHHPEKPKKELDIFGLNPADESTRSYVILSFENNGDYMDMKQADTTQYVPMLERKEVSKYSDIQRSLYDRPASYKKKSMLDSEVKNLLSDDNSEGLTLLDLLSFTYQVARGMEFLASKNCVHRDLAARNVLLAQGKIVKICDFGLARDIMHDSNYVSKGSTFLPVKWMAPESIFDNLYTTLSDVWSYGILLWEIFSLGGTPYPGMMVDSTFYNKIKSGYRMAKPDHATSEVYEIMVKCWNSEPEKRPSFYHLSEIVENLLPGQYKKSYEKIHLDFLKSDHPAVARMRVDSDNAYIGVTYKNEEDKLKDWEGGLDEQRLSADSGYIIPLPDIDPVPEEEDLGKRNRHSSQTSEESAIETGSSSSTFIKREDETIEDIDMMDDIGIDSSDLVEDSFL
Sequence of GLK/MAP4K3 (Q8IVH8 whole entry): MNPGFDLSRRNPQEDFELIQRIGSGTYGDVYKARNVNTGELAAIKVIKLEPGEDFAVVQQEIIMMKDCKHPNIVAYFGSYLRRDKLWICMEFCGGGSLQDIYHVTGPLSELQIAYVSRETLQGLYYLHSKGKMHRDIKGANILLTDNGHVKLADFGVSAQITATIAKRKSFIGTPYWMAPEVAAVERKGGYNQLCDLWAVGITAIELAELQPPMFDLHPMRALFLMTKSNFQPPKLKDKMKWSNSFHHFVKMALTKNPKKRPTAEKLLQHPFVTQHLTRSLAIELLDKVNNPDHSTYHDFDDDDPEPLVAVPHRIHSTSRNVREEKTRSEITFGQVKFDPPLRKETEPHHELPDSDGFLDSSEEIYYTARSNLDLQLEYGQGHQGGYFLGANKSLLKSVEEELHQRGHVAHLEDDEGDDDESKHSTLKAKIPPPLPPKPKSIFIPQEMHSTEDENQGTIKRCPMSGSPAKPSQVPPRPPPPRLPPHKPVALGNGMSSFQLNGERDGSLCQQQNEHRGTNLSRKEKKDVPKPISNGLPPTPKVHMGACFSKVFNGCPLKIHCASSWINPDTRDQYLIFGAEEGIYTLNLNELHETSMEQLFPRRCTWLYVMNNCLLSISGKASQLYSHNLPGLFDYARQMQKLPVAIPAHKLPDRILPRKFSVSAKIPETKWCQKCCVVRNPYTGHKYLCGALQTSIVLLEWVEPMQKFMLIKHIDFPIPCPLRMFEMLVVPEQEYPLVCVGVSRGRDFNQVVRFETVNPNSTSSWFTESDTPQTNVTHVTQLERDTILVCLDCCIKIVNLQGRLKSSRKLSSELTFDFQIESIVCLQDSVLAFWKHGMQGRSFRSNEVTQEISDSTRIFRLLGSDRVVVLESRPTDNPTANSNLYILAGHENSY
Sequence of EIF2AK1 (Q9BQI3 whole entry): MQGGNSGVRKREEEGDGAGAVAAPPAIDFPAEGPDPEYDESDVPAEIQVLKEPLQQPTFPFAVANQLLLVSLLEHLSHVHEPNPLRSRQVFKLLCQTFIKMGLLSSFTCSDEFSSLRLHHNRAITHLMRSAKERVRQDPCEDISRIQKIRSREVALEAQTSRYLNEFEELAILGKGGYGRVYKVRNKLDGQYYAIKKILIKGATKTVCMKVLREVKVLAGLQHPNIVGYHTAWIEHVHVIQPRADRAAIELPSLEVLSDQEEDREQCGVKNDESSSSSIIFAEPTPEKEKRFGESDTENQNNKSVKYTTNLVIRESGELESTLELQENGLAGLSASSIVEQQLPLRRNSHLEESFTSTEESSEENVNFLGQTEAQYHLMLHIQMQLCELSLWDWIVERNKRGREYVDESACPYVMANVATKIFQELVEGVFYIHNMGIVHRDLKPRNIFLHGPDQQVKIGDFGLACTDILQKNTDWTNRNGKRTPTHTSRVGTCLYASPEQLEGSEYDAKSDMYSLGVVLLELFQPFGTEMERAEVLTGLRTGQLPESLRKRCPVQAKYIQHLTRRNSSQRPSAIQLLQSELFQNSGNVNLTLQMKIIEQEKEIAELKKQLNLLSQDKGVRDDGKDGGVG
Sequence of VRK2 (Q86Y07 whole entry): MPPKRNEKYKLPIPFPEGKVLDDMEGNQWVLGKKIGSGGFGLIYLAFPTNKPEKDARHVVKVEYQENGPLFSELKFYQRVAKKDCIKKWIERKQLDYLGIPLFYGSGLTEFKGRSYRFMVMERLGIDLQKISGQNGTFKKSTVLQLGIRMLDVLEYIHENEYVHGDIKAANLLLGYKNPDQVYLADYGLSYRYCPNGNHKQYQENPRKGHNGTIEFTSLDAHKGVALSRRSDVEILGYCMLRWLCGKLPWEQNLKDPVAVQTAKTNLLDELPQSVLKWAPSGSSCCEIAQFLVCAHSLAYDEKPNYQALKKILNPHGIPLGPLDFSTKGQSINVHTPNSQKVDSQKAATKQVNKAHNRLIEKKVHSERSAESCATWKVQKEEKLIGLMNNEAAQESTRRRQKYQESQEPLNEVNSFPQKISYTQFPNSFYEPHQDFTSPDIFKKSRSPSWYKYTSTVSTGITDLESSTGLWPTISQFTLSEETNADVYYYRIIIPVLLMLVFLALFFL
Sequence of SSTK/TSSK6 (Q9BXA6 whole entry): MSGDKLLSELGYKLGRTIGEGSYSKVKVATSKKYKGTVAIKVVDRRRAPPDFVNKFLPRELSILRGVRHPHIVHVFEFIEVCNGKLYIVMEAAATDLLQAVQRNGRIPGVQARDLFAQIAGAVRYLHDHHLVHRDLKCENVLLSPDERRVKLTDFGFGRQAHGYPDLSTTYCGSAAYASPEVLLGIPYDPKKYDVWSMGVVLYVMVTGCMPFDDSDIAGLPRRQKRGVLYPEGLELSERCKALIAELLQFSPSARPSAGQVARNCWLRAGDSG

Q: With C#C[C@@](C)(c1ccc(Cl)cc1)c1csc(NC(=O)c2c(F)cc(N3CCNCC3)cc2F)n1 (stereo in doubt) [DF-003] as the compound, how does the remaining activity at 10 µM [1] read?
A: 87%

Q: And the remaining activity at 10 µM [2]?
A: 62.4%

Q: And the remaining activity at 10 µM [3]?
A: 96.7%

Q: And the remaining activity at 10 µM [4]?
A: 87.4%

Q: And the remaining activity at 10 µM [5]?
A: 88.5%

Q: What about the remaining activity at 10 µM [6] of the same compound?
A: 61.3%

Q: What about the remaining activity at 10 µM [7] of the same compound?
A: 97.9%

Q: What about the remaining activity at 10 µM [8] of the same compound?
A: 117%

Q: And the remaining activity at 10 µM [9]?
A: 86%

Q: And the remaining activity at 10 µM [10]?
A: 94.4%

Q: What about the remaining activity at 10 µM [11] of the same compound?
A: 81.6%

Q: What about the “Iba1 positive cells in 200 μm INL (Inner nuclear layer)” value ([12]; DF-003 3mpk, 3 mg/kg) of the same compound?
A: 0.00 and 0.04 and 0.08

Q: And the “Iba1 positive cells in 200 μm ONL (Outer nuclear layer)” value ([12]; DF-003 3mpk, 3 mg/kg)?
A: 0.00 and 0.08 and 0.04

Q: What about the “Iba1 positive cells in 200 μm INL (Inner nuclear layer)” value ([12]; DF-003 5mpk, 5 mg/kg) of the same compound?
A: 0.00 and 0.04 and 0.11

Q: What about the “Iba1 positive cells in 200 μm ONL (Outer nuclear layer)” value ([12]; DF-003 5mpk, 5 mg/kg) of the same compound?
A: 0.08 and 0.06 and 0.00 and 0.04

Q: And the remaining activity at 10 µM [13]?
A: 83.6%

Q: What about the remaining activity at 10 µM [14] of the same compound?
A: 91.9%

Q: What about the remaining activity at 10 µM [15] of the same compound?
A: 83.4%

Q: What about the remaining activity at 10 µM [16] of the same compound?
A: 95.5%

Q: What about the remaining activity at 10 µM [17] of the same compound?
A: 75.5%

Q: And the remaining activity at 10 µM [18]?
A: 85.2%

Q: What about the remaining activity at 10 µM [19] of the same compound?
A: 107%

Q: And the remaining activity at 10 µM [20]?
A: 113%

Q: And the remaining activity at 10 µM [21]?
A: 128%

Q: And the remaining activity at 10 µM [22]?
A: 87.6%

Q: And the remaining activity at 10 µM [23]?
A: 79.6%

Q: And the remaining activity at 10 µM [24]?
A: 92.3%

Q: And the remaining activity at 10 µM [25]?
A: 89.1%

Q: What about the remaining activity at 10 µM [26] of the same compound?
A: 90.6%

Q: And the remaining activity at 10 µM [27]?
A: 98.2%

Q: What about the remaining activity at 10 µM [28] of the same compound?
A: 85.9%

Q: And the remaining activity at 10 µM [29]?
A: 94.6%

Q: And the remaining activity at 10 µM [30]?
A: 78.8%

Q: What about the remaining activity at 10 µM [31] of the same compound?
A: 96.5%

Q: And the remaining activity at 10 µM [32]?
A: 77.3%

Q: What about the remaining activity at 10 µM [33] of the same compound?
A: 136%

Q: What about the remaining activity at 10 µM [34] of the same compound?
A: 82%

Q: What about the remaining activity at 10 µM [35] of the same compound?
A: 87.3%

Q: What about the remaining activity at 10 µM [36] of the same compound?
A: 98.4%

Q: And the remaining activity at 10 µM [37]?
A: 97.1%

Q: And the remaining activity at 10 µM [38]?
A: 104%

Q: What about the remaining activity at 10 µM [39] of the same compound?
A: 90%
